Test results as given in patent US11504370B2, “Treatment of brain cancer” (Array BioPharma Inc., priority 2012, dated 2022).
Read-outs that look alike come from different tables or passages of the source.

Tests used:
[1] = test system: NCI-N87 gastric carcinoma cells; test: Anti-tumor efficacy on N87 human gastric cancer in murine xenograft model (subcutaneous); type: in vivo, mice; details: subcutaneous NCI-N87, N=8
Description: Nude nu/nu female mice (NCI, Bethesda, Md.) were split into five groups (N=8). Tumor cells (NCI-N87 gastric carcinoma cells, NCI, Bethesda, Md. 1×10^7) were implanted into the mice via subcutaneous injection (100 μL) directly on the right flank. To ensure good tumor take, the cells should be greater than 90% viable (thus, the intitial cell suspension of 1×10^7 cells/mL were injected for 1×10^6 cells injected/100 The tumors were allowed to grow to 150±50 mm^3. The tumor size was measured, and the mice were weighed. The mice were administered vehicle (30% Captisol®, 150 g in 500 mL DI water, PO, BID), lapatanib (50 mg/kg, PO, BID, 30% Captisol®), lapatanib (100 mg/kg, PO, BID, 30% Captisol®), N4-(4-([1,2,4]triazolo[1,5-a]pyridin-7-yloxy)-3-methylphenyl)-N6-(4,4-dimethyl-4,5-dihydrooxazol-2-yl)quinazoline-4,6-diamine (50 mg/kg, PO, QD, 30% Captisol) and N4-(4-([1,2,4]triazolo[1,5-a]pyridin-7-yloxy)-3-methylphenyl)-N6-(4,4-dimethyl-4,5-dihydrooxazol-2-yl)quinazoline-4,6-diamine (100 mg/kg, PO, QD, 30% Captisol). The tumor volume was measured. The number of partial responses in the mice was as follows: lapatanib (50 mg/kg) 0, lapatanib (100 mg/kg) 1, ARRY-380 (50 mg/kg) 1, ARRY-380 (100 mg/kg) 4.

[2] = Brain pharmacokinetic (PK) study in mice; type: in vivo; details: for Kp at 0.5 h / Kp at 1 h / Kp at 2 h / Kp at 4 h / concentration at 0.5 h / concentration at 1 h / concentration at 2 h / concentration at 4 h: mouse; for Kp at 0.5 h / Kp at 1 h / Kp at 2 h / Kp at 4 h: brain / plasma, ARRY-380 75 mg/kg, read-out: brain:plasma ratio
Description: The mice were separated into groups and their PK was studied at 4 time points (0.5, 1, 2 and 4 hours, 4 mice per group per timepoint). The animals were euthanized by CO2 inhalation at the time points. Whole blood was drawn (300 μL) by cardiac puncture and […] eppendorf tube containing ethylenediaminetetraacetic acid (“EDTA”) ([…]). The samples were centrifuged, and the plasma was decanted and frozen at -20° C. until delivered to analytical chemistry. The brains were collected. The animals were perfused with 5-10 mL of saline, and the brains were removed, weighed and placed into a fast prep tube for DMPK analysis.

[3] = Physicochemical analysis: hygroscopicity
[4] = test system: NCI-N87 gastric carcinoma cells; test: Inhibition of NCI-N87 gastric carcinoma xenograft growth in mice implanted intracranially; type: in vivo; details: 75 mg/kg PO BID; intracranial NCI-N87, nude BALB/c mice; FIG. 3
Description: Anesthetized nude BALB/c female mice (Taconic Laboritories Inc., Germantown, N.Y.) were inoculated with human tumor cells (NCI-N87 gastric carcinoma cells, NCI, Bethesda, Md.) intracranially at lamba suture. 5×10^5 cells in saline were implanted via intracranial injection. The mice were separated into three groups (N=12); vehicle (acidified 30% Captisol®, pH about 4.5), 50 mg/kg lapatanib PO BID (30% Captisol®), and 75 mg/kg N4-(4-([1,2,4]triazolo[1,5-a]pyridin-7-yloxy)-3-methylphenyl)-N6-(4,4-dimethyl-4,5-dihydrooxazol-2-yl)quinazoline-4,6-diamine PO BID (acidified 30% Captisol®, pH about 4.5). Dosing began two days after implantation. The dose may have been reduced as necessary if drug-related weight loss (approximately 5%) was observed. The mice were monitored twice daily for general health and behavioral/neurological effects, and body weights (BW) were determined twice weekly. At first sign of neurological problem or body weight loss of greater than 20%, the mice were euthanized by CO2 inhalation. Brain and plasma were collected for analyses.

[5] = Dissolution testing at pH 6.5 in phosphate buffer; type: physicochemical; details: pH 6.5 phosphate buffer, 37° C., about 240 minutes
Description: Dissolution testing was performed at a pH of 6.5 in phosphate buffer. […] The solid dispersion was suspended in H2O and added directly to the buffer solution at 37° C. […]

[6] = 50 mg/kg PO (lapatanib BID, ARRY-380 QD)
[7] = 100 mg/kg PO (lapatanib BID, ARRY-380 QD)
[8] = 0.5 hour, single PO dose, lapatanib 50 mg/kg, ARRY-380 75 mg/kg (AR00440993 = metabolite of ARRY-380), nude female BALB/c mice
[9] = 1 hour, single PO dose, lapatanib 50 mg/kg, ARRY-380 75 mg/kg (AR00440993 = metabolite of ARRY-380), nude female BALB/c mice
[10] = 2 hour, single PO dose, lapatanib 50 mg/kg, ARRY-380 75 mg/kg (AR00440993 = metabolite of ARRY-380), nude female BALB/c mice
[11] = 4 hour, single PO dose, lapatanib 50 mg/kg, ARRY-380 75 mg/kg (AR00440993 = metabolite of ARRY-380), nude female BALB/c mice
[12] = female, nude BALB/c, 0.5 hour, single PO dose, lapatanib 50 mg/kg
[13] = female, nude BALB/c, 1 hour, single PO dose, lapatanib 50 mg/kg
[14] = female, nude BALB/c, 2 hour, single PO dose, lapatanib 50 mg/kg
[15] = female, nude BALB/c, 4 hour, single PO dose, lapatanib 50 mg/kg
[16] = female, nude BALB/c, 0.5 hour, single PO dose, lapatanib 50 mg/kg, ARRY-380 75 mg/kg (AR00440993 = metabolite), perfused brain, read-out: Average Brain Concentration
[17] = female, nude BALB/c, 1 hour, single PO dose, lapatanib 50 mg/kg, ARRY-380 75 mg/kg (AR00440993 = metabolite), perfused brain, read-out: Average Brain Concentration
[18] = female, nude BALB/c, 2 hour, single PO dose, lapatanib 50 mg/kg, ARRY-380 75 mg/kg (AR00440993 = metabolite), perfused brain, read-out: Average Brain Concentration
[19] = female, nude BALB/c, 4 hour, single PO dose, lapatanib 50 mg/kg, ARRY-380 75 mg/kg (AR00440993 = metabolite), perfused brain, read-out: Average Brain Concentration

Average Plasma Concentration [2, 8] [ng/mL]	Average Plasma Concentration [2, 9] [ng/mL]	Average Plasma Concentration [2, 10] [ng/mL]	Average Plasma Concentration [2, 11] [ng/mL]	Kp at 0.5 h [2, 12]	Kp at 1 h [2, 13]	Kp at 2 h [2, 14]	Kp at 4 h [2, 15]	concentration at 0.5 h [2, 16] [ng/g]	concentration at 1 h [2, 17] [ng/g]	concentration at 2 h [2, 18] [ng/g]	concentration at 4 h [2, 19] [ng/g]	SMILES	number of partial responses in the mice [1, 6]	number of partial responses in the mice [1, 7]	other results
1910	4310	1740	1940	0.026	0.022	0.039	0.038	44.9	90.8	57.4	65.4	CS(=O)(=O)CCNCc1ccc(-c2ccc3ncnc(Nc4ccc(OCc5cccc(F)c5)c(Cl)c4)c3c2)o1 [Lapatanib, lapatinib, reference compound]	0	1	–
–	–	–	–	–	2.08	0.48	1.31	–	28.9	35.8	40	Cc1cc(Nc2ncnc3ccc(NC4=NC(C)(CO)CO4)cc23)ccc1Oc1ccn2ncnc2c1 (centres unmarked) [AR00440993, (2-((4-((4-([1,2,4]triazolo[1,5-a]pyridin-7-yloxy)-3-methylphenyl)amino)quinazolin-6-yl)amino)-4-methyl-4,5-dihydrooxazol-4-yl)methanol]	–	–	Average Brain Concentration ([2]; 0.5 hour, single PO dose, lapatanib 50 mg/kg, ARRY-380 75 mg/kg (AR00440993 = metabolite), perfused brain): BLQ; brain penetration ([2]; compared with lapatanib or ARRY-380, mice, after PO ARRY-380): significantly higher; concentration at 0.5 h ([2]; plasma, 0.5 hour, single PO dose, lapatanib 50 mg/kg, ARRY-380 75 mg/kg (AR00440993 = metabolite of ARRY-380), nude female BALB/c mice, read-out: Average Plasma Concentration): 20.2 µg/mL; concentration at 1 h ([2]; plasma, 1 hour, single PO dose, lapatanib 50 mg/kg, ARRY-380 75 mg/kg (AR00440993 = metabolite of ARRY-380), nude female BALB/c mice, read-out: Average Plasma Concentration): 67.3 µg/mL; concentration at 2 h ([2]; plasma, 2 hour, single PO dose, lapatanib 50 mg/kg, ARRY-380 75 mg/kg (AR00440993 = metabolite of ARRY-380), nude female BALB/c mice, read-out: Average Plasma Concentration): 134 µg/mL; concentration at 4 h ([2]; plasma, 4 hour, single PO dose, lapatanib 50 mg/kg, ARRY-380 75 mg/kg (AR00440993 = metabolite of ARRY-380), nude female BALB/c mice, read-out: Average Plasma Concentration): 70.4 µg/mL
–	–	–	–	–	–	–	–	–	–	–	–	Cc1cc(Nc2ncnc3ccc(NC4=NC(C)(C)CO4)cc23)ccc1Oc1ccn2ncnc2c1 [REF]	–	–	Hygroscopicity (% wt change at 80% RH) [3]: <1% wt change at 80% RH
3350	6420	6010	2640	0.048	0.048	0.021	0.019	122	116	134	42.1	Cc1cc(Nc2ncnc3ccc(NC4=NC(C)(C)CO4)cc23)ccc1Oc1ccn2ncnc2c1 [ARRY-380, N4-(4-([1,2,4]Triazolo[1,5-a]pyridin-7-yloxy)-3-methylphenyl)-N6-(4,4-dimethyl-4,5-dihydrooxazol-2-yl)quinazoline-4,6-diamine]	1	4	phospho-ErbB2/total ErbB2 in the brain [4]: significantly decreases
–	–	–	–	–	–	–	–	–	–	–	–	CCO.Cc1cc(Nc2ncnc3ccc(NC4=NC(C)(C)CO4)cc23)ccc1Oc1ccn2ncnc2c1.Cc1cc(Nc2ncnc3ccc(NC4=NC(C)(C)CO4)cc23)ccc1Oc1ccn2ncnc2c1 [Example 21, N4-(4-([1,2,4]triazolo[1,5-a]pyridin-7-yloxy)-3-methylphenyl)-N6-(4,4-dimethyl-4,5-dihydrooxazol-2-yl)quinazoline-4,6-diamine freebase hemi-ethanolate]	–	–	AUC for the free drug species [5]: 5490 ng·h/mL; Cmax for the free drug species [5]: 0.44 µg/mL
